Tests used:
[1] = target: MAO-B (Homo sapiens, UniProt P27338)
[2] = target: MAO-A (Homo sapiens, UniProt P21397)
[3] = test system: MGC-803 cells; details: MGC-803, 0.02 μM, 48 h
[4] = target: T1, LSD1 (Homo sapiens, UniProt O60341); details: monitored at 468nm; data not shown
[5] = target: T1, LSD1
[6] = test system: MGC-803 cells; details: MGC-803, 0.25 μM
[7] = target: T1, LSD1; details: dialyzed against hepes buffer 4°C 24 h
[8] = target: LSD1-snai1 complex in MGC-803 cells (Homo sapiens, UniProt O60341); details: MGC-803, 48h; 2-PCPA 100, 250μM
[9] = target: purified LSD1 recombinant (Homo sapiens, UniProt O60341)
[10] = target: T1, LSD1; assay: Microscale thermophoresis; assay type: binding

Chain of MAO-B (P27338 whole entry, species assumed): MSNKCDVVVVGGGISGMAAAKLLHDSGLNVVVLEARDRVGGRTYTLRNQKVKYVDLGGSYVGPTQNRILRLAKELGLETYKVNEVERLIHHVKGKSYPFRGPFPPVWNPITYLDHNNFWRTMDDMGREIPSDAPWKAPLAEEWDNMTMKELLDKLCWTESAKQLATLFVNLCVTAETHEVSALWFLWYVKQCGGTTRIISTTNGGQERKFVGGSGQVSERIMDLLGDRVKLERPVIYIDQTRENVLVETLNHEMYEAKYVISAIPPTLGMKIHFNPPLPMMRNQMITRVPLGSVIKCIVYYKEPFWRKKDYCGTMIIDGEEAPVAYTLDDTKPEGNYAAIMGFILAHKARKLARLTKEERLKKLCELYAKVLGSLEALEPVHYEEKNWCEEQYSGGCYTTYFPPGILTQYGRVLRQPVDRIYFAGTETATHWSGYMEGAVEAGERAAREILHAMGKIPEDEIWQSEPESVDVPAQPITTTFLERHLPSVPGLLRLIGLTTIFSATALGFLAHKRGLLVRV
Chain of MAO-A (P21397 whole entry, species assumed): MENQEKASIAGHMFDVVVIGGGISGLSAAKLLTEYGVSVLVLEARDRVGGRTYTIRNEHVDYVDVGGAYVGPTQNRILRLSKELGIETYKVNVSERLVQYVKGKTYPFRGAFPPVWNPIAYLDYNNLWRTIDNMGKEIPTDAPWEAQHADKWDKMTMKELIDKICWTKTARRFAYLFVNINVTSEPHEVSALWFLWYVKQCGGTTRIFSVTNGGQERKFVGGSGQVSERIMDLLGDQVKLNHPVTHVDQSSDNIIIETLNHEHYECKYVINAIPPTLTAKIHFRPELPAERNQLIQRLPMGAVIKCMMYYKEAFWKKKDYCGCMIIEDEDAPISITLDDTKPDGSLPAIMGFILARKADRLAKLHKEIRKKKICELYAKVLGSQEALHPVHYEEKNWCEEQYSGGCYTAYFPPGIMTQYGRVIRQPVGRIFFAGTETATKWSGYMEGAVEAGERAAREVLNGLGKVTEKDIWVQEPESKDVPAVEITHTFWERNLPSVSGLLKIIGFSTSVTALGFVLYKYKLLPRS

CC(C)(C)OC(=O)N1CCN(C(=S)SCc2cn(Cc3ccccc3F)nn2)CC1 [Compound 22, tert Butyl 4-(((1-(2-fluorobenzyl)-1H-1,2,3-triazol-4-yl)methylthio)carbonothioyl)-piperazine-1-carboxylate]
effect on MAO-B activity (in words) [1]: no significant effects
effect on MAO-A activity (in words) [2]: no significant effects

Cc1ccc(Cn2cc(CSC(=S)N3CCN(C(=O)OC(C)(C)C)CC3)nn2)cc1 [Compound 26, tert Butyl 4-(((1-(4-methylbenzyl)-1H-1,2,3-triazol-4-yl)methylthio)carbonothioyl)-piperazine-1-carboxylate]
cell migration [3]: significantly inhibited
amount of FAD in the dialysis tube after dialysis [4]: much less than that in control group
mode of inhibition over LSD1 substrate H3K4me2 ([5]; FAD 2.5 μM, peptide 10 to 80 μM): non-competitive inhibitor
mode of inhibition over LSD1 cofactor FAD ([5]; peptide 25 μM, FAD 0.6 to 9.0 μM): competitive inhibitor
cell proliferation [6]: cannot inhibit the cell proliferation
LSD1 activity after dialysis [7]: the activity can be restored
effect on MAO-B activity (in words) [1]: no significant effects
effect on MAO-A activity (in words) [2]: no significant effects
binding of LSD1 to snai1 [8]: significantly decreased

Cc1ccccc1Cn1cc(CSC(=S)N2CCN(C(=O)OC(C)(C)C)CC2)nn1 [Compound 29]
LSD1 inhibitory activity (in words) [9]: without any detectable activity

CC(C)(C)OC(=O)N1CCN(C(=S)SCc2cn(CCOc3cc(=O)oc4ccccc34)nn2)CC1 [Compound 47]
LSD1 inhibitory activity (in words) [9]: complete loss of activity or very weak binding affinity

CC(C)(C)OC(=O)N1CCN(C(=S)SCc2cn(Cc3ccc4ccccc4c3)nn2)CC1 [Compound 48]
LSD1 inhibitory activity (in words) [9]: complete loss of activity or very weak binding affinity

CC(C)(C)OC(=O)N1CCN(C(=S)SCc2cn(Cc3cc(=O)[nH]c4ccccc34)nn2)CC1 [Compound 49]
LSD1 inhibitory activity (in words) [9]: complete loss of activity or very weak binding affinity

CC(C)(C)OC(=O)N1CCN(C(=S)SCc2cn(Cc3nc4ccccc4[nH]3)nn2)CC1 [Compound 50]
LSD1 inhibitory activity (in words) [9]: complete loss of activity or very weak binding affinity

CC(C)(C)OC(=O)N1CCN(C(=S)SCc2cn(CC3=CC(=O)OC3)nn2)CC1 [Compound 51]
LSD1 inhibitory activity (in words) [9]: complete loss of activity or very weak binding affinity

Cc1cc2nc3c(=O)[nH]c(=O)nc-3n(C[C@H](O)[C@H](O)[C@H](O)COP(=O)(O)OP(=O)(O)OC[C@H]3O[C@@H](n4cnc5c(N)ncnc54)[C@H](O)[C@@H]3O)c2cc1C [FAD, flavin adenine dinucleotide]
Kd [10]: 182 nM

Source: PMC3881423 (Journal of medicinal chemistry, 2013)
